In ChEMBL document CHEMBL1201862, “PubChem BioAssay data set” (2004):
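Grown in 96-well plates, cells were treated for 48 hours with each compound at five concentrations. Insufficient inhibition: endpoint recorded as highest concentration tested. At the GI50, growth is halved.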 Active and inactive are the calls of the source. No stated cut-off is given here; in the data, active = GI50 up to about 1.1 µM and inactive = higher.

Key:
Test in all cases: NCI-60 cell line screen, 48 h
K562 = tested on: K562
TK-10 = tested on: TK-10
NCI-H522 = tested on: NCI-H522
MDA-MB-231 = tested on: MDA-MB-231
OVCAR-8 = tested on: OVCAR-8
COLO 205 = tested on: COLO 205
HOP-62 = tested on: HOP-62
SN12C = tested on: SN12C
IGROV-1 = tested on: IGROV-1
CAKI-1 = tested on: CAKI-1
SR = tested on: SR
MDA-N = tested on: MDA-N
SW-620 = tested on: SW-620
UACC-62 = tested on: UACC-62
SNB-19 = tested on: SNB-19
RPMI-8226 = tested on: RPMI-8226
SNB-75 = tested on: SNB-75
RXF 393 = tested on: RXF 393
MCF7 = tested on: MCF7

Row | SMILES | GI50 (K562) | GI50 (TK-10) | GI50 (NCI-H522) | GI50 (MDA-MB-231) | GI50 (OVCAR-8) | GI50 (COLO 205) | GI50 (HOP-62) | GI50 (SN12C) | GI50 (IGROV-1) | GI50 (CAKI-1) | GI50 (SR) | GI50 (MDA-N) | GI50 (SW-620) | GI50 (UACC-62) | GI50 (SNB-19) | GI50 (RPMI-8226) | GI50 (SNB-75) | GI50 (RXF 393) | GI50 (MCF7)
1 | Cc1cccc2c(=O)c3cccc([C@@H](C)C(=O)O)c3oc12 | > 100 µM (inactive) | > 100 µM (inactive) | > 100 µM (inactive) | > 100 µM (inactive) | > 100 µM (inactive) | > 100 µM (inactive) | > 100 µM (inactive) | > 100 µM (inactive) | > 100 µM (inactive) | > 100 µM (inactive) | > 100 µM (inactive) | > 100 µM (inactive) | > 100 µM (inactive) | > 10 µM (inactive) | > 100 µM (inactive) | > 100 µM (inactive) |  |  | 
2 | C=C(OC1C(C)=C2C(C1OC(=O)CCCCCCC)C(C)(OC(C)=O)CC(OC(=O)CCC)C1(O)C2OC(=O)C1(C)O)/C(C)=C/C (stereo not given) | 0.0125 µM (active) |  | 0.0125 µM (active) | < 0.0001 µM (active) | 0.0125 µM (active) |  |  | 0.0125 µM (active) | 0.0125 µM (active) | 0.0125 µM (active) | 0.000145 µM (active) | < 0.0001 µM (active) | 0.0125 µM (active) | 0.0125 µM (active) | 0.0422 µM (active) | 0.0125 µM (active) | 0.0125 µM (active) | 0.0125 µM (active) | 0.0125 µM (active)
3 | O=Cc1c[nH]c2c(=O)[nH]cnc12 | > 100 µM (inactive) | > 100 µM (inactive) | > 100 µM (inactive) |  | > 100 µM (inactive) | > 100 µM (inactive) | > 100 µM (inactive) | > 100 µM (inactive) | > 100 µM (inactive) | > 100 µM (inactive) | > 100 µM (inactive) |  | > 100 µM (inactive) | > 100 µM (inactive) | > 100 µM (inactive) | > 100 µM (inactive) | > 100 µM (inactive) | > 100 µM (inactive) | 
4 | COC(C/C(=C/CO[Si](C(C)C)(C(C)C)C(C)C)C(=O)N(COCC[Si](C)(C)C)c1ccccc1I)OC | > 100 µM (inactive) | 63.1 µM (inactive) |  | > 100 µM (inactive) | 89.5 µM (inactive) | 57.7 µM (inactive) | 50.9 µM (inactive) | 71 µM (inactive) | 0.0247 µM (active) | > 100 µM (inactive) | > 100 µM (inactive) | 37.4 µM (inactive) | 33.5 µM (inactive) | 15.6 µM (inactive) | 26.1 µM (inactive) | > 100 µM (inactive) | > 100 µM (inactive) |  | 
5 | Cc1ccc(C(=O)O)cc1NC(=O)c1cc(/C=C/c2ccccc2)[nH]c(=S)n1 | > 54.8 µM (inactive) | > 100 µM (inactive) | > 100 µM (inactive) |  | > 100 µM (inactive) | > 65.8 µM (inactive) | > 100 µM (inactive) | > 100 µM (inactive) | > 100 µM (inactive) | > 100 µM (inactive) | > 100 µM (inactive) |  | > 28.9 µM (inactive) | > 100 µM (inactive) | > 100 µM (inactive) | > 44.1 µM (inactive) | > 100 µM (inactive) | > 100 µM (inactive) | 
6 | O=C(N/C=C/C=C/Sc1ccccc1)OCc1ccccc1 | 15.4 µM (inactive) | 24.3 µM (inactive) | 16.1 µM (inactive) |  | 15.7 µM (inactive) | 17.7 µM (inactive) | 24.5 µM (inactive) | 17.1 µM (inactive) | 21.2 µM (inactive) | 20.3 µM (inactive) | 36.3 µM (inactive) |  | 17.7 µM (inactive) | 16 µM (inactive) | 33.3 µM (inactive) | 18.7 µM (inactive) | 21.5 µM (inactive) | 20.1 µM (inactive) | 
7 | C#CC(O)/C=C/C(O)CCCC(O)CC#CC(O)C#CC(O)CCCC(O)/C=C/CCCCCC(=O)CCCCCCCCCCCCCC(O)C(O)C#CC(=O)O (stereo not given) | > 50 µM (inactive) | > 50 µM (inactive) | 8.89 µM (inactive) | 12.1 µM (inactive) | > 50 µM (inactive) | > 50 µM (inactive) | > 50 µM (inactive) | > 50 µM (inactive) | 13.7 µM (inactive) | > 50 µM (inactive) | 13.1 µM (inactive) | > 50 µM (inactive) |  | > 50 µM (inactive) | > 50 µM (inactive) | 26.5 µM (inactive) | 12.3 µM (inactive) |  | 14.3 µM (inactive)
8 | CCOC(=O)Nc1[nH]cc(-c2ccccc2)c1C#N | > 100 µM (inactive) | > 100 µM (inactive) | > 100 µM (inactive) | > 100 µM (inactive) | > 100 µM (inactive) | > 100 µM (inactive) | > 100 µM (inactive) | > 100 µM (inactive) | > 100 µM (inactive) |  | > 100 µM (inactive) | > 100 µM (inactive) | > 100 µM (inactive) | > 100 µM (inactive) | > 100 µM (inactive) | > 100 µM (inactive) | > 100 µM (inactive) |  | > 100 µM (inactive)
9 | O=C(Cc1cccs1)N[C@@H]1C(=O)N2C(C(=O)OC(c3ccccc3)c3ccccc3)=C(CO)CS[C@H]12 | > 100 µM (inactive) | > 100 µM (inactive) | 16.8 µM (inactive) | > 100 µM (inactive) | > 100 µM (inactive) | > 100 µM (inactive) |  | > 100 µM (inactive) | 29.9 µM (inactive) | > 100 µM (inactive) | 47.4 µM (inactive) | > 100 µM (inactive) | > 100 µM (inactive) | > 100 µM (inactive) |  | 96.2 µM (inactive) |  | > 100 µM (inactive) | > 100 µM (inactive)
10 | CN(Cc1cc(Cl)c(Cl)cc1NC(=O)CN)[C@H]1CCCC[C@@H]1N1CCCC1 | 17.8 µM (inactive) | 28.1 µM (inactive) | 18.4 µM (inactive) | 38.5 µM (inactive) | 54.5 µM (inactive) | 15.2 µM (inactive) | 92.7 µM (inactive) | 69.3 µM (inactive) | 66.2 µM (inactive) | 92.7 µM (inactive) | 21.5 µM (inactive) | 17 µM (inactive) | 37.5 µM (inactive) | 17.1 µM (inactive) | 45.2 µM (inactive) |  | > 100 µM (inactive) | > 100 µM (inactive) | 32.4 µM (inactive)
11 | C(=N/Nc1ccc(-c2nc3ccccc3[nH]2)cc1)/c1c(-c2ccccc2)[nH]c2ccccc12 | 0.176 µM (active) | 0.766 µM (active) | 0.34 µM (active) | 0.475 µM (active) | 0.698 µM (active) |  | 0.319 µM (active) |  | 0.728 µM (active) | 0.53 µM (active) | 0.12 µM (active) | 0.0303 µM (active) | 0.317 µM (active) |  |  | 0.268 µM (active) | 0.703 µM (active) | 1.6 µM (inactive) | 0.361 µM (active)
12 | Cc1oc2c(C)c3oc(=O)cc(C)c3cc2c1CNC(=O)[C@@H]1OCCOCCOCCOCCOCCOC1C(=O)O (stereo not given in full) | > 100 µM (inactive) | > 100 µM (inactive) | > 100 µM (inactive) |  | > 100 µM (inactive) | > 100 µM (inactive) | > 100 µM (inactive) | > 100 µM (inactive) | > 100 µM (inactive) | > 100 µM (inactive) | > 100 µM (inactive) |  | > 100 µM (inactive) | > 100 µM (inactive) | > 100 µM (inactive) | > 100 µM (inactive) | > 100 µM (inactive) | > 100 µM (inactive) | 
